According to patent US6670401B2, “Polysubstituted indan-1-ol compounds, and methods for their preparation and use” (Aventis Pharma Deutschland GmbH, priority 2001, dated 2003):

Assays:
female NMRI mice = test: Anorectic action: cumulative evaporated milk consumption after 24 h feed removal; assay type: in vivo, mouse; conditions: 30 mg/kg i.p.
Procedure: The activity of the compounds was assayed as follows:
The anorectic action was tested on female NMRI mice. After removal of feed for 24 hours, the preparation to be tested was administered intraperitoneally (i.p.) or by gavage (po). The animals were housed singly and, with free access to drinking water, they were offered evaporated milk 30 minutes after administration of the preparation. The consumption of evaporated milk was determined and the general behavior of the animals was monitored every half an hour for 7 hours. The measured milk consumption was compared to that of vehicle-treated control animals.

melting point: 148 °C
SMILES: CC1(O)c2ccc(Cl)cc2CC1(F)S(C)(=O)=O (stereo not drawn) [Example 1, 5-Chloro-2-fluoro-2-methanesulfonyl-1-methylindan-1-ol]
Reduction in cumulative milk consumption as % of the control (female NMRI mice; compared with vehicle-treated control animals): 25%
cumulative milk consumption by treated animals (female NMRI mice; milk offered 30 min after administration, monitored for 7 hours, N=4): 4/2.88 ml
